We go through 26 compounds from patent US8575165B2, “Methods for treating inflammatory disorders using 2,4-pyrimidinediamine compounds” (Rigel Pharmaceuticals, Inc., priority 2009, dated 2013).

The test system of one experiment is IL-10. Kind of experiment: In vitro IL-10 assay: IL-10 ELISA of supernatant from IFNγ-primed THP-1 cells stimulated with SAC. The experiment is classed as cell-based, human. Further details: key: “+” indicates an increase in production; “−” indicates a decrease in production. Conditions: effect on expression level of IL-10 in THP-1 cells primed with IFNγ and stimulated with 0.01% SAC; test compound 0.01 μM to 20 μM. On the procedure:
(§1) Exponentially growing THP-1 cells were plated (100K/well in 100 μL) in standard RPMI media (1% P/S+10% FBS) containing 50 ng/mL IFNγ (1000 U/mL) onto a white clear bottom 96 well plate and leave the cells in 37° C. incubator for 24 h.
(§2) After 24 h incubation, 100 μL of RPMI media containing 2× concentrated test compound per well was added to the above cell-culture media (final concentration of test compound was from 0.01 μM to 20 μM). The plates were pre-incubated for 1 h at 37° C. before being stimulated with SAC.
(§3) After 1 h compound pre-incubation, 10 μL per well of 20× concentrated SAC solution in RPMI media was added to give a final concentration of 0.01%, the plates were shaken and incubated at 37° C. for an additional 18 h.
(§4) 155 μL of the supernatant was harvested from each well and to the remaining 50 μL/well of the cell culture plate was added 50 μL of CELL TITER GLO® reagent. The plates were incubated for 1-2 minutes on a shaker and read for luminescence intensity to determine the compound cytotoxicity.
(§5) The cell culture supernatant collected above was used to carry out IL23 ELISA (65 μL-Supernatant) and IL10 ELISA (90 μL-Supernatant) as described below.
C. Human IL-10 ELISA Protocol (e-Biosciences)
Cell Culture Supernatant (90 μL from THP-1 cells primed with IFNγ (50 ng/mL-1000 U/mL) and stimulated with 0.01% SAC)
To 10.5 mL PBS was added 50 μL of anti-IL10 capture antibody (2.5 μg/mL), mixed well and 100 μL of the coating solution was added to each well of the 96 well white plates from Pierce. The plates were covered and incubated overnight at 4° C.
The anti-IL10 antibody-coated plates were washed 2× using TBST (use plate washer) and blocked the using 200 μL of 0.5% Casein for 1.5-2 h at RT with shaking.
The plates were washed 2× using TBST and the supernatant (100 μL/well) was transferred to the above pre-blocked/IL10-antibody-coated 96 well plate and incubated at RT for 1.5 h with shaking.
The plate was washed 4× using TBST (plate washer) and 100 μL/well detection antibody solution prepared from 2 μL of biotin labeled anti-IL-10 antibody in 11 mL 1% BSA/PBS solution (1-5000 dilution) was added. The plates were incubated for 1 hour with shaking at RT.
(§6) Again, the plate was washed 4× with TBST and 100 μL of HRP labeled Streptavidin (R&D Systems) solution (10 μL/10 mL 1% BSA solution) was added and incubated at RT for another 45 min with shaking.
After 45 min, the plate was washed with TBST 4× and 100 uL/well Super Signal ELISA Pico Chemiluminescent Substrate from Pierce (3.5 mL A+3.5 mL B+3.5 mL MQ water) was added, the plate was shaken for 1-2 minutes then read on a plate reader to quantify the amount of IL-10 secreted by the cells.
In general terms: ELISA stands for enzyme-linked immunosorbent assay.

In a further experiment the test system is IL-23. Kind of experiment: In vitro IL-23 assay: IL-23 (p19/p40) ELISA of supernatant from IFNγ-primed THP-1 cells stimulated with SAC. Conditions: effect on expression level of IL-23 in THP-1 cells primed with IFNγ and stimulated with 0.01% SAC; test compound 0.01 μM to 20 μM. The arrangement: key: “+” indicates an increase in production; “−” indicates a decrease in production. In kind it is cell-based, human. How it is done: as §1, §2, §3, §4, §5
B. Human IL-23 (p19/p40) ELISA Protocol (e-Biosciences)
Cell Culture Supernatant (65 μL from THP-1 cells primed with IFNγ (50 ng/mL-1000 U/mL) and stimulated with 0.01% SAC)
To 10.5 mL PBS was added 50 μL of anti-IL23 (p19) capture antibody (2.5 μg/mL), mixed well and 100 μL of the coating solution was added to each well of the 96 well white plates from Pierce, cover and incubate overnight at 4° C.
The anti-IL23 (p19)-antibody-coated plates were washed 2× using TBST (use plate washer) and the plates were blocked using 200 μL of 0.5% Casein for 1.5-2 h at room temperature with shaking.
The plates were washed 2× using TBST and the supernatant (65 μL/well) was transferred to the above pre-blocked/IL23(p19)-antibody-coated 96 well plate and incubated at RT for 1.5 h with shaking.
The plate was washed 4× using TBST (plate washer) and 100 μL/well of detection antibody solution was added. The detection antibody solution was prepared from 2 μL of biotin labeled anti-IL-12 (p40/p70) antibody in 11 mL 1% BSA/PBS solution (1-5000 dilution). The plates were incubated for 1 hour with shaking at RT.
as §6
After 45 min, the plate was washed with TBST 4× and 100 μL/well Super Signal ELISA Pico Chemiluminescent Substrate from Pierce (3.5 mL A+3.5 mL B+3.5 mL MQ water) was added, the plate was shaken for 1-2 minutes then read on a plate reader to quantify the amount of IL-23 secreted by the cells.

The structures appear in SMILES notation.

As to `CN1C(C)(C)CC(Nc2nc(Nc3ccc(N4CCN(S(C)(=O)=O)CC4)c(OC(F)F)c3)ncc2F)CC1(C)C` [Compound 13], the IL-10 result with IL-10 is recorded as “+”.

As for `CN1CCN(c2ccc(Nc3ncc(F)c(NC4CC(C)(C)N(C)C(C)(C)C4)n3)cc2Cl)CC1` [Compound 6], the IL-10 result with IL-10 is listed as “+”.

`CN1C(C)(C)CC(Nc2nc(Nc3ccc(N4CCN(S(C)(=O)=O)CC4)c(C(F)(F)F)c3)ncc2F)C1(C)C` (centres unmarked) [Compound 3]: the IL-23 entry in the experiment on IL-23 is given as “−”. In the experiment on IL-10, the IL-10 entry is listed as “+”.

Turning to `CN1CCN(c2ccc(Nc3ncc(F)c(NC4CC(C)(C)N(C)C(C)(C)C4)n3)cc2C(F)(F)F)CC1` [Compound 2], in the experiment with IL-23, the IL-23 result is given as “−”. Moreover, the IL-10 entry in the experiment with IL-10 was “−”.

With `CN1CCN(c2ccc(Nc3ncc(F)c(NC4CC(C)(C)N(C)C4(C)C)n3)cc2C(F)(F)F)CC1` (centres unmarked) [Compound 4], the IL-23 entry with IL-23 is listed as “−”. For the same compound, the IL-10 entry in the experiment with IL-10 is recorded as “−”.

Consider `CN1C(C)(C)CC(Nc2nc(Nc3ccc(N4CCN(S(C)(=O)=O)CC4)c(C#N)c3)ncc2C#N)CC1(C)C` [Compound 24], for which the IL-10 entry with IL-10 is listed as “+”.

Take `CN1C(C)(C)CC(Nc2nc(Nc3ccc(N4CCN(S(C)(=O)=O)CC4)c(C#N)c3)ncc2F)CC1(C)C` [Compound 12]: in the experiment on IL-10, the IL-10 result is reported as “+”.

As for `CN1C(C)(C)CC(Nc2nc(Nc3ccc(N4CCN(S(C)(=O)=O)CC4)c(C(F)(F)F)c3)ncc2[N+](=O)[O-])CC1(C)C` [Compound 20], the IL-10 entry in the experiment on IL-10 is “+”.

As for `CN1CCN(S(=O)(=O)c2ccc(Nc3ncc(F)c(NC4CC(C)(C)N(C)C(C)(C)C4)n3)cc2Cl)CC1` [Compound 8], the IL-23 result in the experiment on IL-23 is given as “−”. Besides, the IL-10 result in the experiment with IL-10 was “+”.

Regarding `CCN1C(=O)C(F)(F)Oc2cc(Nc3ncc(F)c(NC4CC(C)(C)N(C)C(C)(C)C4)n3)ccc21` [Compound 16], in the experiment with IL-10, the IL-10 entry is recorded as “+”.

On to `CN1C(C)(C)CC(Nc2nc(Nc3ccc(N4CCN(S(C)(=O)=O)CC4)c(C(F)(F)F)c3)ncc2F)CC1(C)C` [Compound 10], for which, in the experiment with IL-10, the IL-10 entry is recorded as “+”.

In the case of `CN1C(C)(C)CC(Nc2nc(Nc3ccc(N4CCN(S(C)(=O)=O)CC4)c(Cl)c3)ncc2[N+](=O)[O-])CC1(C)C` [Compound 21], the IL-10 result in the experiment on IL-10 is given as “+”.

Regarding `CN1C(C)(C)CC(Nc2nc(Nc3ccc(N4CCN(S(C)(=O)=O)CC4)c(Cl)c3)ncc2F)CC1(C)C` [Compound 5], the IL-10 result in the experiment on IL-10 is recorded as “+”.

On to `CN1CCN(c2ccc(Nc3ncc(F)c(NC4CC(C)(C)N(C)C(C)(C)C4)n3)cc2Cl)CC1` [Compound 17], for which, in the experiment with IL-10, the IL-10 result was “−”.

Turning to `CN1C(C)(C)CC(Nc2nc(Nc3ccc(S(=O)(=O)N4CCNCC4)c(Cl)c3)ncc2F)CC1(C)C` [Compound 9], the IL-10 entry in the experiment on IL-10 is given as “+”.

Regarding `CN1C(C)(C)CC(Nc2nc(Nc3ccc(N4CCN(S(C)(=O)=O)CC4)c(C(F)(F)F)c3)ncc2C#N)CC1(C)C` [Compound 22], the IL-10 entry in the experiment on IL-10 was “+”.

Turning to `CCOC(=O)c1cnc(Nc2ccc(N3CCN(S(C)(=O)=O)CC3)c(Cl)c2)nc1NC1CC(C)(C)N(C)C(C)(C)C1` [Compound 19], the IL-23 entry in the experiment on IL-23 was “−”. In addition, in the experiment on IL-10, the IL-10 result is recorded as “+”.

`CN1C(C)(C)CC(Nc2nc(Nc3ccc(N4CCN(S(C)(=O)=O)CC4)c(C(F)(F)F)c3)ncc2C(F)(F)F)CC1(C)C` [Compound 25]: the IL-23 entry with IL-23 is “−”. The IL-10 result in the experiment with IL-10 is recorded as “+”.

For the compound `COc1ccc(Nc2ncc(F)c(NC3CC(C)(C)N(C)C(C)(C)C3)n2)cc1OC(F)F` [Compound 14], the IL-10 result with IL-10 is listed as “+”.

As to `CN1C(C)(C)CC(Nc2nc(Nc3ccc(N4CCN(S(C)(=O)=O)CC4)c(Cl)c3)ncc2C(F)(F)F)CC1(C)C` [Compound 26], in the experiment on IL-10, the IL-10 entry was “+”.

Take `CN1C(C)(C)CC(Nc2nc(Nc3ccc(N4CCN(S(=O)(=O)C5CC5)CC4)c(C(F)(F)F)c3)ncc2F)CC1(C)C` [Compound 11]: the IL-10 entry in the experiment with IL-10 is on record as “+”.

Regarding `CN1C(C)(C)CC(Nc2nc(Nc3ccc(N4CCN(S(C)(=O)=O)CC4)c(Cl)c3)ncc2C#N)CC1(C)C` [Compound 23], the IL-23 result with IL-23 is listed as “−”. Moreover, the IL-10 entry in the experiment on IL-10 is recorded as “+”.

For `CN1C(C)(C)CC(Nc2nc(Nc3ccc(N4CCN(S(C)(=O)=O)CC4)c(C(F)(F)F)c3)ncc2F)CC1(C)C` [Compound 1], the IL-23 entry with IL-23 is listed as “−”.

As for `CN1C(C)(C)CC(CNc2nc(Nc3ccc(N4CCN(S(C)(=O)=O)CC4)c(C(F)(F)F)c3)ncc2F)C1(C)C` (centres unmarked) [Compound 7], in the experiment on IL-23, the IL-23 entry is on record as “−”. Besides, the IL-10 entry in the experiment on IL-10 is given as “+”.

Consider `CCOC(=O)c1cnc(Nc2ccc(N3CCN(S(C)(=O)=O)CC3)c(C(F)(F)F)c2)nc1NC1CC(C)(C)N(C)C(C)(C)C1` [Compound 18], for which the IL-23 entry in the experiment on IL-23 was “−”. Moreover, the IL-10 result with IL-10 is reported as “+”.

Take `CN1C(C)(C)CC(Nc2nc(Nc3ccc(N4CCN(S(=O)(=O)C5CC5)CC4)c(Cl)c3)ncc2F)CC1(C)C` [Compound 15]: in the experiment with IL-10, the IL-10 entry is listed as “+”.
